From patent publication US20120302636A1, “METHOD OF TREATING A DISORDER ASSOCIATED WITH MTP” (priority 2009, published 2012)

Tests used:
[1] = Example 8: pharmacokinetics (trough concentrations)
Excerpt: This example involved a clinical study of the compound of formula (I), which was a randomized, double-blind, placebo-controlled, parallel group study to evaluate the efficacy of the compound of formula (I) administered twice daily for twelve weeks in obese subjects.

[2] = Example 2: repeated oral dose study of tablets QD or BID, safety; type: in vivo, human
Protocol: Each tablet contained 5 mg (BID), 10 mg (QD), 20 mg (QD), or 30 mg (QD).

Compound: CCOC(=O)C(COC(=O)Cc1ccc(NC(=O)c2ccccc2-c2ccc(C(F)(F)F)cc2)c(C(=O)N(C)C)c1)(C(=O)OCC)c1ccccc1 [compound of formula (I), diethyl 2-((2-(3-(dimethylcarbamoyl)-4-(4′-(trifiuoromethyl)biphenyl-2-ylcarboxamido)phenyl)acetoxy)methyl)-2-phenyl malonate]
- trough concentrations of the compound of formula (I) ([1]; 1 mg BID): not quantifiable
- trough concentrations of the compound of formula (I) ([1]; 2.5 and 3.5 mg BID): quantifiable in a few subjects
- incidence of diarrhea ([2]; 5 mg BID): 100%
- incidence of moderate diarrhea ([2]; 5 mg BID): 66.7%
- incidence of vomiting (moderate) ([2]; 5 mg BID): 16.7%
- number of diarrhea events ([2]; 5 mg BID): 7
- subjects with adverse events (incidence) ([2]; 5 mg BID): 100.0%
- suitability as clinical dose for hyperlipidemic patients ([2]; 5 mg BID): inappropriate as a clinical dose
- subjects with adverse events (incidence) ([2]; 10 mg QD): 50.0%
- incidence of diarrhea ([2]; 20 mg QD): 16.7%
- incidence of moderate diarrhea ([2]; 20 mg QD): 16.7%
- number of diarrhea events ([2]; 20 mg QD): One
- subjects with adverse events (incidence) ([2]; 20 mg QD): 66.7%
- incidence of diarrhea ([2]; 30 mg QD): 66.7%
- incidence of moderate diarrhea ([2]; 30 mg QD): 50.0%
- number of diarrhea events ([2]; 30 mg QD): 4
- subjects with adverse events (incidence) ([2]; 30 mg QD): 66.7%
- vitamin E levels ([2]; 30 mg QD): decreased on Day 7
- subjects with queasiness ([2]; 30 mg dose): 2 of 6 subjects
- incidence of infection and infestation (SOC) ([2]; active group): 4.2%
- incidence of investigation (SOC) ([2]; active group): 20.8%
- incidence of metabolism and nutrition disorder (SOC) ([2]; active group): 4.2%
- incidence of gastrointestinal disorder (SOC) ([2]; active group, 24 subjects): 58.3%
- incidence of CK increased ([2]; overall compound group): 12.5%
- incidence of abdomen enlarged feeling ([2]; overall compound group): 20.8%
- incidence of diarrhea ([2]; overall compound group): 45.8%
- incidence of loose stools ([2]; overall compound group): 20.8%
- incidence of stomach discomfort ([2]; overall compound group): 25.0%
- number of diarrhea events ([2]; overall compound group): Twelve
- subjects with adverse events (incidence) ([2]; overall compound group, 24 subjects): 70.8%
- fat-soluble vitamin levels ([2]; remaining groups (10 mg QD, 20 mg QD, 5 mg BID)): did not decrease
- death or serious adverse events ([2]; tablets, 14 days): No death or other serious adverse events occurred
